Assays:
[1] = tested on: human peripheral blood mononuclear cells; assay: Induction of cytokine production in human peripheral blood mononuclear cells, Bio-Plex Pro cytokine assay (Example 7); assay type: cell-based; conditions: 2 days culture, no stimulant (FIG. 9)
Experimental: Human peripheral blood mononuclear cells were introduced into a human complete medium (i.e., RPMI-1640 supplemented with 10% heat-inactivated FBS, 100 U/ml penicillin, and 100 μg/ml streptomycin) to prepare a cell suspension (1×10^5 cells/ml). Compound (I), the EGFR tyrosine kinase inhibitor (i.e., AZD9291 or Erlotinib), or a cytokine-inducing positive control (i.e., Imiquimod) was added to the cell suspension. A control group to which the EGFR tyrosine kinase inhibitor and others were not added was also prepared (i.e., the non-treatment group). The culture solution was cultured in an incubator at 37° C. in the presence of 5% CO2 for 2 days. The culture supernatant was recovered, and various types of cytokines were inspected with the use of the Bio-Plex Pro human cytokine assay kit.

B16F10 = assay: In vitro growth of mouse melanoma cell line B16F10, CellTiter-Glo2.0 (Reference Example 1); assay type: cell-based; conditions: B16F10, 3 days culture
Experimental: The mouse melanoma cell lines B16F10 and K1735M2 and the mouse colon cancer cell line MC38 were seeded in a 96-well plate at 3×10^3 cells/well. Compound (I) or the EGFR tyrosine kinase inhibitor (i.e., Erlotinib, Afatinib, AZD9291, or Co1686 (Rociletinib)) that had been diluted to the given concentration was added 24 hours later. Thereafter, culture was conducted for 3 days, and the number of cells was determined using CellTiter-Glo2.0 (Promega, G9243).

C=CC(=O)N[C@H]1CCc2c(-c3cnc4ccccc4c3)c3c(N)ncnc3n2C1 [Compound (I), (S)—N-(4-amino-5-(quinolin-3-yl)-6,7,8,9-tetrahydropyrimido[5,4-b]indolizin-8-yl)acrylamide]
cytokine concentrations relative to the non-treatment group [1]: induced the production of various types of cytokines | suppression of cell growth (number of cells) (B16F10): did not suppress the growth of any cells

Reference: US20170202838A1, “IMMUNOMODULATOR” (TAIHO PHARMACEUTICAL CO., LTD., priority 2015, published 2017)
